Data taken from patent US20040014942A1, “Mutant strains capable of producing chemically diversified proteins by incorporation of non-conventional amino acids” (priority 2000, published 2004).

Key:
[1] = system: strain β5366 (wild-type valS allele); experiment: Sensitivity to non-canonical amino acids, growth inhibition zone on Petri dishes; format: cell-based, E. coli; conditions: 100 mM solution in central well
Procedure: (1) 100 mM L-2-amino-butyrate
(2) 100 mM L-2-amino-valerate
(3) 100 mM L-2-3-diamino-propionate

adapted strain β8144 = experiment: Phenotypic suppression by metabolic precursors of cysteine; format: cell-based, E. coli; conditions: 3 mM (L-thiazolidine4-carboxylate acid 2 mM), instead of thymidine or thymine
Excerpt: (§1) The nutritional requirement for cysteine of the adapted strains β8144 and β8146 is utilised to characterise metabolic precursors which can replace cysteine in the culture medium without giving rise to degradation by oxidation. […] However, the addition of none of these substances allows the growth of the strain β1308 leading to chromosomal deletion of the gene thyA of thymidylate synthase, thus excluding their contamination by traces of thymine or thymidine.

adapted strain β8146 = experiment: as above; format: cell-based, E. coli; conditions: 3 mM (L-thiazolidine4-carboxylate acid 2 mM), instead of thymidine or thymine
Excerpt: as §1

[2] = system: strain β5419 with mutator allele dnaQ::miniTn10; experiment: Selection on solid medium with S-carbamyl-L-cysteine; format: cell-based, E. coli; conditions: dishes 0 to 8 mM, without thymidine, 96 hours at 30°, mutator allele only
Excerpt: The strain β5366 carrying the false-sense allele thyA:Val146 on the plasmid pTS1 is transduced with a lysate of the phage P1 harvested on an auxiliary strain of E. coli (β7170, Bouzon et al., 1997) in the chromosome of which a marker of resistance to kanamycin had been introduced at the locus nrdD, neighbour of the locus valS of the gene of valyl-tRNA synthetase, thus producing the strain β5419. A mutator allele of the gene dnaQ is introduced extemporaneously by transduction of the strain β5419 using a lysate of the phage P1 harvested on an auxiliary strain (MS2131, Shapiro, 1990) carrying a marker of resistance to the tetracycline dnaQ::miniTn10. […] After 24 hours, the cells are harvested, and washed twice in an identical volume of culture medium without thymidine. A volume of 0.1 ml of the resultant suspension, corresponding to approximately 10^8 bacteria, is spread on the surface of a series of Petri dishes containing a concentration of S-carbamyl-L-cysteine varying between 0 and 8 mM by adding 1 mM increments of the glucose mineral MS medium (2 g/l). The same procedure is applied to the non-mutator strain β5419, and to the wild-type gene dnaQ. All the Petri dishes are incubated for 96 hours at 30°. […]

strain β5455 = experiment: Growth with S-carbamyl-L-cysteine without thymine or thymidine; format: cell-based, E. coli; conditions: 3 mM S-carbamyl-L-cysteine
Excerpt: A lysate of the phage P1 harvested from such a clone is used to transduce the strain β5366 carrying the plasmidic allele thyA:Val146. […] The other half of the transducers are incapable of this, and require thymine or thymidine to proliferate, just like the strain β5366. This proportion of the phenotypes is in accordance with the genetic distance between the loci valS and nrdD (0.4 mn). Thus, suppression of the false-sense mutation of thyA Cys->Val by a low concentration of exogenous cysteine could result from an alteration of the gene of valyl-tRNA synthetase. […] An A changed into a C causes replacement of the threonine at position 222 by proline, thus confirming the fixation of a genetic alteration in the gene valS of the strain β5455.

[3] = system: strains β5479, β5485 and β5486; experiment: Phenotype of new valS mutants from mutator strain; format: cell-based, Escherichia coli
Excerpt: Three of these clones served to prepare lysates of the phage P1, which were used to transduce the strain β5366, by selecting for resistance to kanamycin, following the procedure of Example 5. […] The locus valS of the three strains β5479, β5485 and β5486, each corresponding to an SCC-suppressible transducer obtained from one of the three lysates was amplified by PCR and sequenced as described in Example 3. A different localised mutation was found for each of the three strains, viz. Arg 223 changed into His in the strain β5479, Val 276 changed into Ala in the strain β5485 and Asp 230 changed into Asn in the strain β5486.

strain β1308 (ΔthyA) = experiment: Growth over a cysteine diffusion gradient; format: cell-based, E. coli; conditions: same conditions
Excerpt: (§2) The plasmid pTS1 thus obtained propagates the allele thyA:Val146, in which the position 146 occupied in the wild-type thyA gene by the codon UGC of cysteine is occupied by the codon GUA of valine. The plasmid pTS1 is introduced by transformation, carried out according to the method of Sambrook and coll. (1989), in the strain ΔthyA of E. coli K12, β1308 (Lemeignan and coll., 1993), whereof the chromosome gene of the thymidylate synthase, thyA, is deleted. […] Thus, everything happens as if the cysteine could infiltrate the active site of the valyl-tRNA synthetase to form erroneous Cys-tRNA^val's capable of correcting the replacement of cysteine by valine in the active site of the thymidylate synthase. The excess valine would prevent the formation of these erroneous Cys-tRNA^val's.

[4] = system: strain β5366 (thyA:Val146); experiment: Growth over a cysteine diffusion gradient; format: cell-based, E. coli
Excerpt: as §2

[5] = system: twelve clones from serial propagation of β5366; experiment: Growth factor test of clones after serial culture; format: cell-based, E. coli; conditions: glucose mineral MS medium dishes
Procedure: The cells are then washed twice with deoxygenated mineral MS medium. A deoxygenated nutritive medium containing 10 ml glucose mineral MS medium to which 1.5 mM cysteine is added is inoculated at 1/100 using washed cells. The cells are then cultivated in anaerobiosis for 24 hours at 30° C. and a fresh tube containing 10 ml deoxygenated cysteine glucose mineral MS medium is inoculated with a 1/100 dilution of the culture at the preceding stationary phase. This procedure is repeated 26 times. At the end of this serial propagation, 12 clones from the liquid culture are isolated on dishes of thymidine (0.3 mM) glucose mineral MS medium (2 g/l) in aerobiosis and kept in suspension in the same liquid medium at −80° C. The twelve clones are tested on dishes containing glucose mineral MS medium with nutritional factors added.

[6] = system: strain β5274 (thyA:Ile146); experiment: Phenotypic suppression by cysteine; format: cell-based, E. coli; conditions: 0.1 mM isoleucine
Procedure: The plasmid pTS2 thus obtained propagates the allele thyA:Ile146, in which the position 146 occupied in the wild-type thyA gene by the codon UGC of cysteine is occupied by the codon AUA of isoleucine. The strain propagating the plasmidic allele thyA:Ile146, […], proves to require the nutritional addition of thymine, thymidine or cysteine in excess, as in the case of the strain β5366. Phenotypic suppression of the strain β5274 by cysteine is abolished by 0.1 mM isoleucine, just as that of the strain β5366 is abolished by valine. Thus everything happens as if the isoleucyl-tRNA synthetase was capable of forming erroneous Cys-tRNA^Ile's in the presence of an excess of cysteine, and this erroneous formation was prevented by the presence of an excess of isoleucine.

Row | Molecule | effect on growth [1] | replacing cysteine as a growth factor (adapted strain β8144) | replacing cysteine as a growth factor (adapted strain β8146) | other results
1 | CCC[C@H](N)C(=O)O [L-2-amino-valerate] | without effect | – | – | –
2 | NC[C@H](N)C(=O)O [L-2-3-diamino-propionate] | without effect | – | – | –
3 | O=C(O)[C@@H]1CSCN1 [L-thiazolidine4-carboxylate acid] | – | capable of replacing cysteine as a growth factor | capable of replacing cysteine as a growth factor | –
4 | NC(=O)SC[C@H](N)C(=O)O [S-carbamyl-L-cysteine] | – | capable of replacing cysteine as a growth factor | capable of replacing cysteine as a growth factor | concentration of S-carbamyl-L-cysteine at which colonies appear [2]: exceeding 2 mM; growth in the absence of thymine or thymidine (strain β5455): capable of growing; growth in glucose mineral solid medium without thymidine ([3]; 3 mM SCC, approximately half the transducers): capable of growing
5 | N[C@@H](CS)C(=O)O [L-cysteine] | – | – | – | growth over a cysteine diffusion gradient (strain β1308 (ΔthyA)): does not give rise to any detectable growth; growth over a cysteine diffusion gradient ([4]; 30° C., glucose mineral MS medium, central well 0.1 ml of 400 mM L-cysteine): marginal growth; cysteine concentration in culture medium replacing thymine or thymidine as growth factor [5]: at least 1.5 mM
6 | CC[C@H](C)[C@H](N)C(=O)O [isoleucine] | – | – | – | effect on phenotypic suppression by cysteine [6]: abolished
7 | L-2-amino-butyrate | without effect | – | – | sensitivity to amino-butyrate ([3]; clones suppressing false-sense mutant Cys 146 Val of thyA): shows sensitivity
8 | CC(C)[C@H](N)C(=O)O [valine] | – | – | – | effect on growth over a cysteine gradient ([4]; 0.1 mM valine added to Petri dish medium): abolishes the growth
9 | CSC[C@H](N)C(=O)O [S-methyl-L-cysteine] | – | capable of replacing cysteine as a growth factor | capable of replacing cysteine as a growth factor | –
